{"source": "patent US12503438B2", "about": "“Compounds for the treatment of kinase-dependent disorders” (Exelixis, Inc., priority 2019, dated 2025)", "key": {"AXL": {"target": "T1, AXL (Homo sapiens, UniProt P30530)", "T1 construct": "endogenous in cells; host or cells: A-172 glioblastoma cells (ATCC #CRL-1620)", "T1 sequence (P30530 26-894)": "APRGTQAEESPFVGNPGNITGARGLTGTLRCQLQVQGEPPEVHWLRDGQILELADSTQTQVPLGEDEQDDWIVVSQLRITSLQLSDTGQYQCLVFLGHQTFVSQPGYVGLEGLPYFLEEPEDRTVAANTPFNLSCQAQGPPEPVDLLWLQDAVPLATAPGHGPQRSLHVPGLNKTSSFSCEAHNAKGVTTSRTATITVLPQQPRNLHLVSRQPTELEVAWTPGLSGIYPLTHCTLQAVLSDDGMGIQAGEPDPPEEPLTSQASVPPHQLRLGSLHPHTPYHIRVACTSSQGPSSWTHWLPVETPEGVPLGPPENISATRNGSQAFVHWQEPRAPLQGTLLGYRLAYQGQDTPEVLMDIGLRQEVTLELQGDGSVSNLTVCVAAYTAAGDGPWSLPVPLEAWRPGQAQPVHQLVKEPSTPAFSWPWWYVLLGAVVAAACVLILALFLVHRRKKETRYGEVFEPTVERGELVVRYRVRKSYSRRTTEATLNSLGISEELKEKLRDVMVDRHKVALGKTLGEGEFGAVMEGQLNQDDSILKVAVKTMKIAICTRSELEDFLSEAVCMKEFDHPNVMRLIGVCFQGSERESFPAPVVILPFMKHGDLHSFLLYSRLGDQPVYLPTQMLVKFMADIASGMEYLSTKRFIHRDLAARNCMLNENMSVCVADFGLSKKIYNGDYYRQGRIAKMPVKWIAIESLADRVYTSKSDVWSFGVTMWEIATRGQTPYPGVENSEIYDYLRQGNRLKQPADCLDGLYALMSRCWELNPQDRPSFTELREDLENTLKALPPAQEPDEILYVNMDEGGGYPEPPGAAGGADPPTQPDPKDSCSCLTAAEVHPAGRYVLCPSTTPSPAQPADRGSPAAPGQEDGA", "assay": "AXL autophosphorylation ELISA in A-172 cells", "format": "cell-based", "conditions": "cellular activity, Gas6-stimulated, phospho-AXL ELISA", "procedure": "A-172 glioblastoma cells (ATCC #CRL-1620) were seeded at 2.5×10^5 cells/well onto 24-well plates (Greiner #662165), in DMEM (Thermo Fisher #11995-040) containing 10% FBS (Thermo Fisher #26140-079), 1% MEM NEAA (Thermo Fisher #11140-050), 1% GlutaMax (Thermo Fisher #35050-061) and 1% Penicillin Streptomycin (Thermo Fisher #15140-122). A-172 cells were incubated at 37° C., 5% CO2 for 24 h and then starved for 24 h in serum-free medium. Test compounds were serially diluted to produce an 8-point dose curve in fresh serum-free medium to a final concentration of 0.3% DMSO (vehicle) and added to the cells and incubated for 1 h. Cells were then stimulated with 1 μg/mL recombinant human Gas6 (R&D Systems #885-GSB-500) for 15 min, washed with cold PBS and immediately lysed with 150 μL of cold 1× lysis buffer [20 mM Tris, 137 mM sodium chloride, 2 mM EDTA, 10% glycerol, 1% NP-40 alternative, 1 mM activated sodium orthovanadate, 1 mM PefaBloc SC (Sigma-Aldrich #11429868001), protease/phosphatase inhibitor tablet (Thermo Fisher #A32959)]. Lysates were collected and 100 μL/well added into the human phospho-AXL DuoSet IC ELISA (R&D Systems #DYC2228-2). Assay was performed according to manufacturer's instructions and sample phospho-AXL concentrations were extrapolated using human phospho-AXL control (R&D Systems #841645) as a standard. Positive control wells (100% activity) contained Gas6-stimulated, DMSO-treated cell lysates. Negative control wells (0% activity) contained Gas6-stimulated, reference inhibitor-treated cell lysates. IC50 values were calculated by nonlinear regression analysis using a 4-parameter logistic curve fit in ActivityBase XE (IDBS)."}, "KDR": {"target": "KDR (Homo sapiens, UniProt P35968)", "sequence (P35968 20-1356)": "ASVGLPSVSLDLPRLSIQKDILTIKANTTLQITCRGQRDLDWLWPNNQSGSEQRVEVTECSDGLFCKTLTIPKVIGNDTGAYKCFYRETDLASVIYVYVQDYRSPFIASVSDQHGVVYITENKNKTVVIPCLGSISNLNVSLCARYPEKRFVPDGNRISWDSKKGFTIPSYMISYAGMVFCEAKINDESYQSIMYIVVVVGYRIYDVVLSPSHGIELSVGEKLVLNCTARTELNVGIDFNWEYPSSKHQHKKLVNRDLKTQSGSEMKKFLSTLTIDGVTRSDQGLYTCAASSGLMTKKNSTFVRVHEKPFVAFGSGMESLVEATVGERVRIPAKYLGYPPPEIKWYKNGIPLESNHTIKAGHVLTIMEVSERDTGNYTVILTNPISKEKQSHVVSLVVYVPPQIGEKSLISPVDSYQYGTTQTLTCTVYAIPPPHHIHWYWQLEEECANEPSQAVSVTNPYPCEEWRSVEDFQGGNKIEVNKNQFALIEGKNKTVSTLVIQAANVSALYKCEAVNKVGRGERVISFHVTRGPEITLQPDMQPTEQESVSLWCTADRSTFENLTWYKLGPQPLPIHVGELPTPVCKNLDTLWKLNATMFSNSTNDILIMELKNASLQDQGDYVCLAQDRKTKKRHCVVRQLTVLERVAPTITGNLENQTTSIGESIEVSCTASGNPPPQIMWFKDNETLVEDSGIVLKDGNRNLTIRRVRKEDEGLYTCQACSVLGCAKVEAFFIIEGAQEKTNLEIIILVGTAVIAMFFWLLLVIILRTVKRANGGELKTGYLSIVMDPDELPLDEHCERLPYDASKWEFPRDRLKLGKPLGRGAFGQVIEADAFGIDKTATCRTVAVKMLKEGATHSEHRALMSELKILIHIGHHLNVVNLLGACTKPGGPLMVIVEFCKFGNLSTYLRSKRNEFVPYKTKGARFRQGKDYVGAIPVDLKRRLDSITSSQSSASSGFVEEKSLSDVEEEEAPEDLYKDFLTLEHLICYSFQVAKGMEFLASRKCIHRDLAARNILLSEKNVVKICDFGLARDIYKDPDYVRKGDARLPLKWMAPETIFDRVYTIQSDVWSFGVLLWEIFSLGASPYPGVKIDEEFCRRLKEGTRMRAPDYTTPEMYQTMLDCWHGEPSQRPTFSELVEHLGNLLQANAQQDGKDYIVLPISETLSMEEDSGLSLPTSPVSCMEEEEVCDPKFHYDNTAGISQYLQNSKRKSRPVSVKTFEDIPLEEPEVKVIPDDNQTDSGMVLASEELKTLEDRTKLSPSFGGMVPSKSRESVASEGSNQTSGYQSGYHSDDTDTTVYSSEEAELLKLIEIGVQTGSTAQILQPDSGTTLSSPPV", "assay": "KDR autophosphorylation ELISA in HUVEC cells", "format": "cell-based", "design": "endogenous in cells; host or cells: HUVEC (Lonza #C2519A)", "conditions": "cellular activity, VEGF165-stimulated, phospho-KDR ELISA", "procedure": "Human umbilical vein endothelial cells or HUVEC (Lonza #C2519A) were seeded at 2×10^4 cells/well onto 96-well plates (Corning #3904), in EGM-2 growth medium (Lonza #CC-3162) containing 1% Penicillin Streptomycin (Thermo Fisher #15140-122). HUVEC cells were incubated at 37° C., 5% CO2 for 24 h and then starved for 24 h in serum-free EBM-2 basal medium (Lonza #CC-3156) containing 1% Penicillin Streptomycin. Test compounds were serially diluted to produce an 8-point dose curve in fresh serum-free medium to a final concentration of 0.3% DMSO (vehicle) and added to the cells and incubated for 1 h. Cells were then stimulated with 100 ng/mL recombinant human VEGF165 (R&D Systems #293-VE-500) for 5 min, washed with cold PBS, and immediately lysed with 130 μL of cold 1× lysis buffer [20 mM Tris, 137 mM sodium chloride, 2 mM EDTA, 10% glycerol, 1% NP-40 alternative, 1 mM activated sodium orthovanadate, 1 mM PefaBloc SC (Sigma-Aldrich #11429868001), protease/phosphatase inhibitor tablet (Thermo Fisher #A32959)]. Lysates were collected and 100 μL/well added into the human phospho-KDR DuoSet IC ELISA (R&D Systems #DYC1766-2). Assay was performed according to manufacturer's instructions and sample phospho-KDR concentrations were extrapolated using human phospho-KDR control (R&D Systems #841421) as a standard. Positive control wells (100% activity) contained VEGF165-stimulated, DMSO-treated cell lysates. Negative control wells (0% activity) contained non-stimulated cell lysates. IC50 values were calculated by nonlinear regression analysis using a 4-parameter logistic curve fit in ActivityBase XE (IDBS)."}}, "note": "pIC50: −log10 of the molar value.", "data": [{"smiles": "COCCn1cc(-c2ccc3c(Oc4ccc(NC(=O)C5(C(=O)Nc6ccc(F)cc6)CC5)cc4)ccnc3c2)cn1", "note": "[Compound 10, 1-N′-(4-Fluorophenyl)-1-N-[4-[7-[1-(2-methoxyethyl)pyrazol-4-yl]quinolin-4-yl]oxyphenyl]cyclopropane-1,1-dicarboxamide]", "values": [{"measurement": "pIC50", "setting": "AXL", "value": "≥ 8.00"}, {"measurement": "pIC50", "setting": "KDR", "value": "7.00 to 8.00"}]}, {"smiles": "Cn1cc(-c2ccc3c(Oc4ccc(NC(=O)C5(C(=O)Nc6ccc(F)cc6)CC5)cc4)ccnc3c2)cn1", "note": "[Compound 11, 1-N′-(4-Fluorophenyl)-1-N-[4-[7-(1-methylpyrazol-4-yl)quinolin-4-yl]oxyphenyl]cyclopropane-1,1-dicarboxamide]", "values": [{"measurement": "pIC50", "setting": "AXL", "value": "≥ 8.00"}, {"measurement": "pIC50", "setting": "KDR", "value": "≥ 8.00"}]}, {"smiles": "O=C(Nc1ccc(F)cc1)C1(C(=O)Nc2ccc(Oc3ccnc4cc(-c5cnn(C(F)(F)F)c5)ccc34)cc2)CC1", "note": "[Compound 12, 1-N′-(4-Fluorophenyl)-1-N-[4-[7-[1-(trifluoromethyl)pyrazol-4-yl]quinolin-4-yl]oxyphenyl]cyclopropane-1,1-dicarboxamide]", "values": [{"measurement": "pIC50", "setting": "AXL", "value": "7.00 to 8.00"}, {"measurement": "pIC50", "setting": "KDR", "value": "7.00 to 8.00"}]}, {"smiles": "O=C(Nc1ccc(F)cc1)C1(C(=O)Nc2ccc(Oc3ccnc4cc(-c5cnn(C(F)F)c5)ccc34)cc2)CC1", "note": "[Compound 13, 1-N-[4-[7-[1-(Difluoromethyl)pyrazol-4-yl]quinolin-4-yl]oxyphenyl]-1-N′-(4-fluorophenyl)cyclopropane-1,1-dicarboxamide]", "values": [{"measurement": "pIC50", "setting": "AXL", "value": "≥ 8.00"}, {"measurement": "pIC50", "setting": "KDR", "value": "≥ 8.00"}]}, {"smiles": "O=C(Nc1ccc(F)cc1)C1(C(=O)Nc2ccc(Oc3ccnc4cc(-c5cnn(CCF)c5)ccc34)cc2)CC1", "note": "[Compound 14, 1-N-[4-[7-[1-(2-Fluoroethyl)pyrazol-4-yl]quinolin-4-yl]oxyphenyl]-1-N′-(4-fluorophenyl)cyclopropane-1,1-dicarboxamide]", "values": [{"measurement": "pIC50", "setting": "AXL", "value": "≥ 8.00"}, {"measurement": "pIC50", "setting": "KDR", "value": "7.00 to 8.00"}]}, {"smiles": "O=C(Nc1ccc(F)cc1)C1(C(=O)Nc2ccc(Oc3ccnc4cc(-c5cnn(CC(F)F)c5)ccc34)cc2)CC1", "note": "[Compound 15, 1-N-[4-[7-[1-(2,2-Difluoroethyl)pyrazol-4-yl]quinolin-4-yl]oxyphenyl]-1-N′-(4-fluorophenyl)cyclopropane-1,1-dicarboxamide]", "values": [{"measurement": "pIC50", "setting": "AXL", "value": "≥ 8.00"}, {"measurement": "pIC50", "setting": "KDR", "value": "7.00 to 8.00"}]}, {"smiles": "O=C(Nc1ccc(F)cc1)C1(C(=O)Nc2ccc(Oc3ccnc4cc(-c5cnn(CC(F)(F)F)c5)ccc34)cc2)CC1", "note": "[Compound 16, 1-N′-(4-Fluorophenyl)-1-N-[4-[7-[1-(2,2,2-trifluoroethyl)pyrazol-4-yl]quinolin-4-yl]oxyphenyl]cyclopropane-1,1-dicarboxamide]", "values": [{"measurement": "pIC50", "setting": "AXL", "value": "7.00 to 8.00"}, {"measurement": "pIC50", "setting": "KDR", "value": "≥ 8.00"}]}, {"smiles": "Cn1ccc(-c2ccc3c(Oc4ccc(NC(=O)C5(C(=O)Nc6ccc(F)cc6)CC5)cc4)ccnc3c2)n1", "note": "[Compound 17, 1-N′-(4-Fluorophenyl)-1-N-[4-[7-(1-methylpyrazol-3-yl)quinolin-4-yl]oxyphenyl]cyclopropane-1,1-dicarboxamide]", "values": [{"measurement": "pIC50", "setting": "AXL", "value": "7.00 to 8.00"}, {"measurement": "pIC50", "setting": "KDR", "value": "≥ 8.00"}]}, {"smiles": "O=C(Nc1ccc(F)cc1)C1(C(=O)Nc2ccc(Oc3ccnc4cc(-c5cnn(CCO)c5)ccc34)cc2)CC1", "note": "[Compound 18, 1-N′-(4-Fluorophenyl)-1-N-[4-[7-[1-(2-hydroxyethyl)pyrazol-4-yl]quinolin-4-yl]oxyphenyl]cyclopropane-1,1-dicarboxamide]", "values": [{"measurement": "pIC50", "setting": "AXL", "value": "≥ 8.00"}, {"measurement": "pIC50", "setting": "KDR", "value": "≥ 8.00"}]}, {"smiles": "O=C(Nc1ccc(F)cc1)C1(C(=O)Nc2ccc(Oc3ccnc4cc(-c5cnn(CCN6CCOCC6)c5)ccc34)cc2)CC1", "note": "[Compound 19, 1-N′-(4-Fluorophenyl)-1-N-[4-[7-[1-(2-morpholin-4-ylethyl)pyrazol-4-yl]quinolin-4-yl]oxyphenyl]cyclopropane-1,1-dicarboxamide]", "values": [{"measurement": "pIC50", "setting": "AXL", "value": "≥ 8.00"}, {"measurement": "pIC50", "setting": "KDR", "value": "7.00 to 8.00"}]}, {"smiles": "CCn1cc(-c2ccc3c(Oc4ccc(NC(=O)C5(C(=O)Nc6ccc(F)cc6)CC5)cc4)ccnc3c2)cn1", "note": "[Compound 20, 1-N-[4-[7-(1-Ethylpyrazol-4-yl)quinolin-4-yl]oxyphenyl]-1-N′-(4-fluorophenyl)cyclopropane-1,1-dicarboxamide]", "values": [{"measurement": "pIC50", "setting": "AXL", "value": "≥ 8.00"}, {"measurement": "pIC50", "setting": "KDR", "value": "≥ 8.00"}]}, {"smiles": "CC(C)n1cc(-c2ccc3c(Oc4ccc(NC(=O)C5(C(=O)Nc6ccc(F)cc6)CC5)cc4)ccnc3c2)cn1", "note": "[Compound 21, 1-N′-(4-Fluorophenyl)-1-N-[4-[7-(1-propan-2-ylpyrazol-4-yl)quinolin-4-yl]oxyphenyl]cyclopropane-1,1-dicarboxamide]", "values": [{"measurement": "pIC50", "setting": "AXL", "value": "≥ 8.00"}, {"measurement": "pIC50", "setting": "KDR", "value": "≥ 8.00"}]}, {"smiles": "O=C(Nc1ccc(F)cc1)C1(C(=O)Nc2ccc(Oc3ccnc4cc(-c5cnn(C6CC6)c5)ccc34)cc2)CC1", "note": "[Compound 22, 1-N-[4-[7-(1-Cyclopropylpyrazol-4-yl)quinolin-4-yl]oxyphenyl]-1-N′-(4-fluorophenyl)cyclopropane-1,1-dicarboxamide]", "values": [{"measurement": "pIC50", "setting": "AXL", "value": "7.00 to 8.00"}, {"measurement": "pIC50", "setting": "KDR", "value": "7.00 to 8.00"}]}, {"smiles": "CC(C)(C)n1cc(-c2ccc3c(Oc4ccc(NC(=O)C5(C(=O)Nc6ccc(F)cc6)CC5)cc4)ccnc3c2)cn1", "note": "[Compound 23, 1-N-[4-[7-(1-tert-Butylpyrazol-4-yl)quinolin-4-yl]oxyphenyl]-1-N′-(4-fluorophenyl)cyclopropane-1,1-dicarboxamide]", "values": [{"measurement": "pIC50", "setting": "AXL", "value": "7.00 to 8.00"}, {"measurement": "pIC50", "setting": "KDR", "value": "7.00 to 8.00"}]}, {"smiles": "O=C(Nc1ccc(F)cc1)C1(C(=O)Nc2ccc(Oc3ccnc4cc(-c5cnn(C6COC6)c5)ccc34)cc2)CC1", "note": "[Compound 24, 1-N′-(4-Fluorophenyl)-1-N-[4-[7-[1-(oxetan-3-yl)pyrazol-4-yl]quinolin-4-yl]oxyphenyl]cyclopropane-1,1-dicarboxamide]", "values": [{"measurement": "pIC50", "setting": "AXL", "value": "≥ 8.00"}, {"measurement": "pIC50", "setting": "KDR", "value": "≥ 8.00"}]}, {"smiles": "CC(C)Oc1ccc(-c2ccc3c(Oc4ccc(NC(=O)C5(C(=O)Nc6ccc(F)cc6)CC5)cc4)ccnc3c2)cn1", "note": "[Compound 50, 1-N′-(4-Fluorophenyl)-1-N-[4-[7-(6-propan-2-yloxypyridin-3-yl)quinolin-4-yl]oxyphenyl]cyclopropane-1,1-dicarboxamide]", "values": [{"measurement": "pIC50", "setting": "AXL", "value": "6.52 to 7.00"}]}, {"smiles": "Cc1cc2c(Oc3ccc(NC(=O)C4(C(=O)Nc5ccc(F)cc5)CC4)cc3)ccnc2cc1-c1ncc[nH]1", "note": "[Compound 120, 1-N′-(4-Fluorophenyl)-1-N-[4-[7-(1H-imidazol-2-yl)-6-methylquinolin-4-yl]oxyphenyl]cyclopropane-1,1-dicarboxamide]", "values": [{"measurement": "pIC50", "setting": "AXL", "value": "7.00 to 8.00"}]}]}
